Laboratory results from patent US10041047B2, “Compositions and methods for epithelial stem cell expansion and culture” (The Brigham and Women's Hospital, Inc., priority 2013, dated 2018).

Legend:
[1] = tested on: Lgr5+ stem cells in small intestinal crypts; assay: Small intestinal crypt culture from Lgr5-GFP mice in Matrigel: cell proliferation and Lgr5-GFP expression; format: cell-based, mouse
Method: (§1) Crypts and single Lgr5-GFP cells were isolated as previously described (Sato et al., 2009). Briefly, the proximal half of the small intestine was harvested, opened longitudinally, and washed with cold PBS to remove luminal content. The tissue was then cut into 2-4 mm pieces with scissors and further washed 5-10 times with cold PBS by pipetting up and down using a 10-ml pipette. Tissue fragments were incubated with 2 mM EDTA in PBS for 30 min on ice. After removal of EDTA, tissue fragments were washed with PBS to release crypts. Supernatant fractions enriched in crypts were collected, passed through a 70 μm cell strainer and centrifuged at 300 g for 5 minutes. The cell pellet was re-suspended with cell culture media without growth factors and centrifuged at 150 g to remove single cells. Crypts were then cultured or used for single cell isolation. To obtain single cells, crypts were incubated in culture medium for 45 minutes at 37° C. and triturated with a glass pipette. Dissociated cells were passed through 20 μm cell strainer, negative stained with propidium iodide and single viable GFP-high cells were sorted by flow cytometry (FACS Aria, BD) as previously described (Sato et al., 2009). Small intestinal crypts isolated from Lgr5-EGFP-ires-CreERT2 mice were embedded in Matrigel and cultured under conventional culture conditions in the presence of EGF, Noggin and R-spondin 1 (collectively referred to as ENR) leading to organoids with crypts and villus-like domains and GFP^+ cells at the crypt tips, consistent with previous reports (Sato et al., 2009). Isolated crypts or single cells were cultured as previously described (Sato et al., 2009) with minimal modification. Briefly, crypts or single cells were entrapped in Matrigel and plated at the center of wells in a 24-well plate. After polymerization of Matrigel (growth factor reduced; BD Bioscience), 500 μl of culture medium (Advanced DMEM/F12 (Life Technologies)) was added containing growth factors including EGF (50 ng/ml, Life Technologies), Noggin (100 ng/ml, Peprotech) and R-spondin 1 (500 ng/ml, R&D) and small molecules including CHIR99021 (3 μM, Stemgent) and Valproic Acid (1 mM, Sigma-Aldrich). For comparison of different culture conditions, small molecules or growth factors were added to freshly isolated crypts immediately after plating in Matrigel to test the ability to minimize potential differentiation of the ISC within the crypts and thus sustain crypt cultures. Cell culture media was changed every other day. For single cell culture, cells were embedded in Matrigel containing Jagged-1 peptide (1 μM; AnaSpec) and Y-27632 (10 μM; Tocris) was added for the first 2 days. Cells were passaged either as cell colonies as previously described (Sato et al., 2009) or as single cells. For single cell passage, cell culture medium was removed and Accutase (Life Technologies) was added. After incubation at 37° C. for 10-20 minutes, cell colonies were dissociated into single cells by pipetting. Cells were then washed, embedded in fresh Matrigel and plated into 24-well plates. Cells cultured in the CV condition were passaged every 6 days at a 1:20 split ratio. Approximately half of the cultured crypts contained GFP+ cells, which is consistent with the in vivo GFP expression of Lgr5-GFP mice (FIG. 1).
The growth factors used in the ENR condition provide essential, but not adequate cues to sustain the self-renewal of Lgr5^+ stem cells. To identify factors essential to maintaining the self-renewal status of intestinal stem cells, selected small molecules that modulate signaling pathways of ISCs, such as Wnt, Notch, and BMP, were tested under the ENR condition, using the Lgr5-GFP reporter.
CHIR is a highly-specific GSK3 inhibitor that activates the Wnt/β-catenin signaling pathway (Bain et al., 2007), and has been used to maintain the self-renewal state of embryonic stem cells (Ying et al., 2008). […]

[2] = tested on: single Lgr5-GFP cells; assay: Culture of FACS-sorted single Lgr5-GFP cells: colony formation, proliferation, GFP expression; format: cell-based; conditions: for GFP expression / cell proliferation: single GFP-high cells, 7 day culture with ENR
Method: as §1, with “Small intestinal crypts isolated from Lgr5-EGFP-ires-CreERT2 mice were embedded in Matrigel and cultured under conventional culture conditions in the presence of EGF, Noggin and R-spondin 1 (collectively referred to as ENR) leading to organoids with crypts and villus-like domains and GFP^+ cells at the crypt tips, consistent with previous reports (Sato et al., 2009).” left out, “ratio.” for “ratio. Approximately half of the cultured crypts contained GFP+ cells, which is consistent with the in vivo GFP expression of Lgr5-GFP mice (FIG. 1).”
The Rho kinase inhibitor Y-27632, which inhibits anoikis of single stem cells (Watanabe et al., 2007), was added for the first two days as previously described (Sato et al., 2009).

[3] = crypts cultured 6 days, agent added to ENR condition
[4] = multiple concentrations (FIG. 9E)

SMILES	rescue of cell proliferation and GFP expression following Notch inhibition ([1]; ENR-C with DAPT 5 μM and VPA 0.25-4 mM, 3 days)	GFP expression (percentage and relative GFP intensity of GFP+ cells) [1, 3]	GFP expression at multiple concentrations [1, 4]	cell proliferation at higher concentration [1, 4]	GFP expression [2]	cell proliferation [2]	colony-forming efficiency (in words) ([2]; single Lgr5-GFP+ cells, agent(s) added to ENR)	cell proliferation of crypt cells (organoid size and cell numbers) ([1]; crypts cultured 6 days, agent added to ENR condition, compared to ENR)	need of R-Spondin1 to promote GFP expression ([1]; increasing the concentration of CHIR, crypts 6 days)	increase of colony-forming efficiency ([2]; CHIR added to ENR, single Lgr5-GFP+ cells)
CCCC(CCC)C(=O)O [Valproic Acid]	rescued	significantly increased	maintained GFP expression	marked proliferation inhibition effect	promoted GFP expression	minimal pro-proliferative effect	only weakly increased	–	–	–
Cc1cnc(-c2cnc(NCCNc3ccc(C#N)cn3)nc2-c2ccc(Cl)cc2Cl)[nH]1 [CHIR99021, 6-[[2-[[4-(2,4-Dichlorophenyl)-5-(5-methyl-1H-imidazol-2-yl)-2-pyrimidinyl]amino]ethyl]amino]-3-pyridinecarbonitrile]	–	increased the percentage and relative GFP intensity	–	–	only moderately increased	significantly increased cell proliferation	–	promoted the proliferation	eliminated the need of R-Spondin1	20-50 fold
